Assay [1] concerns the target 5'-AMP-activated protein kinase catalytic subunit alpha-2 (Homo sapiens) (UniProt P54646). The assay can be described thus: Inhibition of AMPKa2 Lys2 labeling site in human A-375 cells at 0.5 uM by KiNativ Profiling analysis relative to control. It counts as cell-based.
Assay [2] has as its system Mast/stem cell growth factor receptor Kit (Homo sapiens), P10721 [D816V]. The assay can be described thus: Inhibition of KIT D816V mutant (unknown origin) at 1 uM by Ambit Kinomescan binding assay relative to control; values are per cent of control.
Assay [3] concerns Epidermal growth factor receptor (Homo sapiens), P00533 [UNDEFINED MUTATION]. The assay can be described thus: Inhibition of EGFR L747-T751del mutant (unknown origin) at 10 uM by Ambit Kinomescan binding assay relative to control.
Chain of Epidermal growth factor receptor (Homo sapiens), P00533 [UNDEFINED MUTATION] (P00533 whole entry, looked up, stated change not applied): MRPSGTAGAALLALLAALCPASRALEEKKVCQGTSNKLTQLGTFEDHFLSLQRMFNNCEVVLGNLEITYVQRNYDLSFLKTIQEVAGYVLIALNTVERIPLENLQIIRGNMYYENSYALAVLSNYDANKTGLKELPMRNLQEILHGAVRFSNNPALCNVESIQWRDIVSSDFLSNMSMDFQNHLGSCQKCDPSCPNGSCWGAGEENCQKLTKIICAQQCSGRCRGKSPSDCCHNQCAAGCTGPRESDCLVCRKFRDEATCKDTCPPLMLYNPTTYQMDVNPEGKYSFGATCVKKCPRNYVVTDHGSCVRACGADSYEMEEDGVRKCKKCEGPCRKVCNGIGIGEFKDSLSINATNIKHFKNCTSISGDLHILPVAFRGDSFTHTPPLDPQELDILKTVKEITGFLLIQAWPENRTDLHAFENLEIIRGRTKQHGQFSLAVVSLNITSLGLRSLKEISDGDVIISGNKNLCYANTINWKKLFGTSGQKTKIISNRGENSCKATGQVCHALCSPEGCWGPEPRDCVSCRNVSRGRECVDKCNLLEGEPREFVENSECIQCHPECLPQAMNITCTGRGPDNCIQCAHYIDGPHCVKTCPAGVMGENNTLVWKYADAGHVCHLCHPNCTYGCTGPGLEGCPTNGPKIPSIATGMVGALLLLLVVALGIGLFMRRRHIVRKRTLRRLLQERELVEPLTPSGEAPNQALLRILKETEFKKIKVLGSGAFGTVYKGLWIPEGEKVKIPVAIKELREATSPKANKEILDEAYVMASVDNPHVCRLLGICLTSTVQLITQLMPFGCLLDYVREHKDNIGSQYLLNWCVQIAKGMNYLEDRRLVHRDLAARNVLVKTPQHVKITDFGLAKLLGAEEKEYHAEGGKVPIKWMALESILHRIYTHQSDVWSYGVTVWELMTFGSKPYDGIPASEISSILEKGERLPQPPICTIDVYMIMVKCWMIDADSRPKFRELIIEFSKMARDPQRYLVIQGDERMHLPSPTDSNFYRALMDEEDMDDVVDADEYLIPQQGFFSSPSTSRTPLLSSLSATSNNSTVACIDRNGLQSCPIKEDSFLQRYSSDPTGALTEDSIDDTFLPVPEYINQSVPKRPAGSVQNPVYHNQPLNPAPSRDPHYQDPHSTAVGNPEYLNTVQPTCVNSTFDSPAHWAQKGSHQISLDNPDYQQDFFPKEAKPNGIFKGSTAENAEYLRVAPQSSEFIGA
Assay [4] addresses Serine/threonine-protein kinase N2 (Homo sapiens) (UniProt Q16513). Nature of the assay: Inhibition of PKN2 Lys2 labeling site in human A-375 cells at 0.5 uM by KiNativ Profiling analysis relative to control. It counts as cell-based.
Assay [5] deals with Serine/threonine-protein kinase 26 (Homo sapiens) (UniProt Q9P289). The assay can be described thus: Inhibition of MST4 (unknown origin) at 10 uM by Ambit Kinomescan binding assay.
Assay [6] has as its target Misshapen-like kinase 1 (Homo sapiens) (UniProt Q8N4C8). The assay can be described thus: Inhibition of ZC3/MINK Lys2 labeling site in human A-375 cells at 5 uM by KiNativ Profiling analysis relative to control. It counts as cell-based.
For assay [7], the target named is Protein kinase C alpha type (Homo sapiens) (UniProt P17252). The assay can be described thus: Inhibition of PKCa Lys2 labeling site in human Huh-7 cell lysate at 1 uM by KiNativ Profiling analysis relative to control. It counts as subcellular.
For assay [8], the target named is T1, Serine/threonine-protein kinase TBK1 (Homo sapiens) (UniProt Q9UHD2).
T1 sequence (whole entry): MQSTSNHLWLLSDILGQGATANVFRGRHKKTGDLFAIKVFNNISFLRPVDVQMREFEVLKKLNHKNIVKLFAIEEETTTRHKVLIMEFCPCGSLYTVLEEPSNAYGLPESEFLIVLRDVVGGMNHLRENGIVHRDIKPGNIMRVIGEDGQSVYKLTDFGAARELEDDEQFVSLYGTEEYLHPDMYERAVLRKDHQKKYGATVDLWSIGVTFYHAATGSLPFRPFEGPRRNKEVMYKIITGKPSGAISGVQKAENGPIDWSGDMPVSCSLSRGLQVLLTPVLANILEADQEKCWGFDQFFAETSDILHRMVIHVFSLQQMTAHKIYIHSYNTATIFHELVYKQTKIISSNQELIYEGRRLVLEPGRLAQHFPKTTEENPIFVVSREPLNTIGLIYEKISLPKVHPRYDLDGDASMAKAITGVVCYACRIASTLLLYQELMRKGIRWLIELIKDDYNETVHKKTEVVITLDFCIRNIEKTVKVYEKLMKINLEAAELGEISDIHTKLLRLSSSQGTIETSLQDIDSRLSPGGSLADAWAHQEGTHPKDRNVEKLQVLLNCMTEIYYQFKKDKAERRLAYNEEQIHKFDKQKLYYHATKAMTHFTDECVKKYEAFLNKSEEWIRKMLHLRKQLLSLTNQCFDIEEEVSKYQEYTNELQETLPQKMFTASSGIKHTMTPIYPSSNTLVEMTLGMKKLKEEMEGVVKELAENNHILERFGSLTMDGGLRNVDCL
The assay can be described thus: Inhibition of TBK1 Lys1 labeling site in human Huh-7 cells at 1 uM by KiNativ Profiling analysis relative to control. Format: cell-based.

Assay [9] has as its target Tyrosine-protein kinase Yes (Homo sapiens) (UniProt P07947). Nature of the assay: Inhibition of YES ACT labeling site in human Huh-7 cell lysate at 1 uM by KiNativ Profiling analysis relative to control. It counts as subcellular.
In assay [10] the target is Microtubule-associated serine/threonine-protein kinase 3 (Homo sapiens) (UniProt O60307). Nature of the assay: Inhibition of MAST3 Lys2 labeling site in human Huh-7 cell lysate at 1 uM by KiNativ Profiling analysis relative to control. It counts as subcellular.
Assay [11] has as its target Ribosomal protein S6 kinase alpha-3 (Homo sapiens) (UniProt P51812). The assay can be described thus: Inhibition of RSK2 domain2 ACT labeling site in human Huh-7 cell lysate at 1 uM by KiNativ Profiling analysis relative to control. Format: subcellular.
Assay [12] has as its target T2, Serine/threonine-protein kinase TAO2 (Homo sapiens) (UniProt Q9UL54).
T2 sequence (whole entry): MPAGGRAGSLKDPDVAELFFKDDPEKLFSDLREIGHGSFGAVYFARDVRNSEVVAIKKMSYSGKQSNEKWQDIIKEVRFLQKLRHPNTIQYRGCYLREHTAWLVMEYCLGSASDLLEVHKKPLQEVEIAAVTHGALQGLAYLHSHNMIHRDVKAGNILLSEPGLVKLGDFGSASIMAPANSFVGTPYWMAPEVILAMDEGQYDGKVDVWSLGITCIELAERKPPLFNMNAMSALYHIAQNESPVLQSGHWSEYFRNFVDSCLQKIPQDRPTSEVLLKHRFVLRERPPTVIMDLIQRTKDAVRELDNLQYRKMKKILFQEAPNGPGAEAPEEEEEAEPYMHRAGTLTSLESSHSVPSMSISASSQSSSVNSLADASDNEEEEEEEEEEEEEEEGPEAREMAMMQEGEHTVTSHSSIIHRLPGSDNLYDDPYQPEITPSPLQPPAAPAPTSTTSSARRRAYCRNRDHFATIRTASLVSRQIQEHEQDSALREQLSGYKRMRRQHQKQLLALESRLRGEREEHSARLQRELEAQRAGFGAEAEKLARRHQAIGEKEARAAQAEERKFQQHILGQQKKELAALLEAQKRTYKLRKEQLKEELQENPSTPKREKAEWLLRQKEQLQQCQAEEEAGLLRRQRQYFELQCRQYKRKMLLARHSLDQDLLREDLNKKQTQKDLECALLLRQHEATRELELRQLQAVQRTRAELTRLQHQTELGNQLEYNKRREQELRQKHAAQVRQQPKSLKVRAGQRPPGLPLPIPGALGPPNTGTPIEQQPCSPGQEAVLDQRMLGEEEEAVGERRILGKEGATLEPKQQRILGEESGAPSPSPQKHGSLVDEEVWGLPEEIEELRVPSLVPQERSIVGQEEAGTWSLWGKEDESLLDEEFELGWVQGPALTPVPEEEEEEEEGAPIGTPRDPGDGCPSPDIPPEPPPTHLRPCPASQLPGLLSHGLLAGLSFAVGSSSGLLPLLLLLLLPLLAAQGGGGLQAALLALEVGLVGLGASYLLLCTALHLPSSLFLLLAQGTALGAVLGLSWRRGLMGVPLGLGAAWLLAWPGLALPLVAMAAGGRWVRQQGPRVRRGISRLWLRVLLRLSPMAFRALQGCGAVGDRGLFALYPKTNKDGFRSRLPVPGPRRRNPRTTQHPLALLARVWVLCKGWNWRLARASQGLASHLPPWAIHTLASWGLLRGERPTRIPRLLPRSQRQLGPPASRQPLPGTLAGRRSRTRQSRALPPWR
Nature of the assay: Inhibition of TAO2 Lys2 labeling site in human Huh-7 cell lysate at 1 uM by KiNativ Profiling analysis relative to control. Format: subcellular.

A word on the inhibition: it is the change of the read-out against control, counted positive when it falls. For orientation: residual activity means the signal under treatment as a percentage of the control signal.

Activity calls are given as the source filed them. The calls are words filed in the database; no cut-off is given here.

Chain of 5'-AMP-activated protein kinase catalytic subunit alpha-2 (Homo sapiens) (P54646 whole entry, looked up): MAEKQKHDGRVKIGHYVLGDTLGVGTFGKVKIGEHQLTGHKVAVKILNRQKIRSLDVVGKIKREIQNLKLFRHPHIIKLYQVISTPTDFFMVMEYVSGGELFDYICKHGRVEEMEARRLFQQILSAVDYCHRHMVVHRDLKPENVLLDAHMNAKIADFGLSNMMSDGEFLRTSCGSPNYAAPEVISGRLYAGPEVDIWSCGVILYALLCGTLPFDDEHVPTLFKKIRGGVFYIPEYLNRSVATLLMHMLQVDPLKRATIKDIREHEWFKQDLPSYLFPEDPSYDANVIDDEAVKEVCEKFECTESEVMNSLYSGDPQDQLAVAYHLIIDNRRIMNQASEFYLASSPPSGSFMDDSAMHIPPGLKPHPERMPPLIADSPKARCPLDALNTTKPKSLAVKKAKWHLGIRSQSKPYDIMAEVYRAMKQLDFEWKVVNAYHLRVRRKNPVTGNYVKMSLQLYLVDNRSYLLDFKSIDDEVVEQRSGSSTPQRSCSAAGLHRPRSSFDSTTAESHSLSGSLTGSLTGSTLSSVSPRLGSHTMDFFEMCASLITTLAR
Chain of Misshapen-like kinase 1 (Homo sapiens) (Q8N4C8 whole entry, looked up): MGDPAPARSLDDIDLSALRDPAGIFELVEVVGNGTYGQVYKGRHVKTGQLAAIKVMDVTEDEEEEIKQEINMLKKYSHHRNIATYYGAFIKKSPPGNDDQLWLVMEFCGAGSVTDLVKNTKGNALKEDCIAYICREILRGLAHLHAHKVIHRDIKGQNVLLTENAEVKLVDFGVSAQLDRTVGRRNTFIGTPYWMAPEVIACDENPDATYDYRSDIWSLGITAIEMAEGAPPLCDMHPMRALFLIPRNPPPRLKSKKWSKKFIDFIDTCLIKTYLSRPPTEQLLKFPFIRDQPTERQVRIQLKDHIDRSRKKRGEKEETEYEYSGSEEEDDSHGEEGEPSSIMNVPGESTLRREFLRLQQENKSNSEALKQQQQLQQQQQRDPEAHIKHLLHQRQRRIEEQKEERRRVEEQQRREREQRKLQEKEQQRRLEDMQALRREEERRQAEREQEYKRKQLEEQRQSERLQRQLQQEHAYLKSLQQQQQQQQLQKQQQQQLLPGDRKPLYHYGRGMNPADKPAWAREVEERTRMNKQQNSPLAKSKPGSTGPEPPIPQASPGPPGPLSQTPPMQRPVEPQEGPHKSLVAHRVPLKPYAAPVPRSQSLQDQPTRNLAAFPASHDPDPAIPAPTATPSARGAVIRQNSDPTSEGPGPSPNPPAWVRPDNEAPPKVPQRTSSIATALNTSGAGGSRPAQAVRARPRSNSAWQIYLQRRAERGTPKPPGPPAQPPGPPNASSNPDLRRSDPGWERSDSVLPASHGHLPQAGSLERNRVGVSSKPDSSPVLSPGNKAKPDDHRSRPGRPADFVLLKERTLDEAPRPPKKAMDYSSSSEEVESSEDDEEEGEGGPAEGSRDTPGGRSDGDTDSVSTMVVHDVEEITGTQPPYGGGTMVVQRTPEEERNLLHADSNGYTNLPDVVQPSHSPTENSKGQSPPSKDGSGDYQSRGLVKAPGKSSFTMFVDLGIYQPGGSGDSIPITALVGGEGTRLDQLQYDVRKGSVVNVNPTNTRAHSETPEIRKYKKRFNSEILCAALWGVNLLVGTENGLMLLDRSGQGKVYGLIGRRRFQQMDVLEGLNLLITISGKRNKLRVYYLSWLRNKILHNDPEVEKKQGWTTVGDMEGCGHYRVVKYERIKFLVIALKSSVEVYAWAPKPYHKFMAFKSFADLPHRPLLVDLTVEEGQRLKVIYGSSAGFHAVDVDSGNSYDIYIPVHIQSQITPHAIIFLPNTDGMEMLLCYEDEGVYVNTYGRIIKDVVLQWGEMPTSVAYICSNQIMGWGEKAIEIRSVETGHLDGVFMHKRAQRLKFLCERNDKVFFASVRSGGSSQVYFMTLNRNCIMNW
Chain of Ribosomal protein S6 kinase alpha-3 (Homo sapiens) (P51812 whole entry, the tested form may be a part): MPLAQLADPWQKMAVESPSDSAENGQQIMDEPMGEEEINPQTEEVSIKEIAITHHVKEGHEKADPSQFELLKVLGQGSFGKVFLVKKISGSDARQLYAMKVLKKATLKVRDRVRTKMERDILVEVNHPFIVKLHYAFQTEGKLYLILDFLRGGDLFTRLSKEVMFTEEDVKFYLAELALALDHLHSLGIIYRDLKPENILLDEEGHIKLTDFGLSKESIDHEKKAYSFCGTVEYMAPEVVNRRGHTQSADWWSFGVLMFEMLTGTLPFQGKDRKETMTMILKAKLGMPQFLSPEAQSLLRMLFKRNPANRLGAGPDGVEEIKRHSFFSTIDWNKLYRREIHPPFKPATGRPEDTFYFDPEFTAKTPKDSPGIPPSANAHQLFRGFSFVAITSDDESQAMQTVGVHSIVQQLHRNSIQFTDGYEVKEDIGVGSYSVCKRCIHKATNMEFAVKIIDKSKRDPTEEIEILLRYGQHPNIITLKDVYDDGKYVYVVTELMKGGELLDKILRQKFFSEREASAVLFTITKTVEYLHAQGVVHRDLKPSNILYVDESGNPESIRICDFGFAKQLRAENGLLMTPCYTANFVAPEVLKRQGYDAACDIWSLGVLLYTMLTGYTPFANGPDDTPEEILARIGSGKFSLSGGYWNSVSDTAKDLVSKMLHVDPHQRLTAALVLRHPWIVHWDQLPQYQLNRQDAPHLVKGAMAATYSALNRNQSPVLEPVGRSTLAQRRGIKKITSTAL
Chain of Serine/threonine-protein kinase N2 (Homo sapiens) (Q16513 whole entry, looked up): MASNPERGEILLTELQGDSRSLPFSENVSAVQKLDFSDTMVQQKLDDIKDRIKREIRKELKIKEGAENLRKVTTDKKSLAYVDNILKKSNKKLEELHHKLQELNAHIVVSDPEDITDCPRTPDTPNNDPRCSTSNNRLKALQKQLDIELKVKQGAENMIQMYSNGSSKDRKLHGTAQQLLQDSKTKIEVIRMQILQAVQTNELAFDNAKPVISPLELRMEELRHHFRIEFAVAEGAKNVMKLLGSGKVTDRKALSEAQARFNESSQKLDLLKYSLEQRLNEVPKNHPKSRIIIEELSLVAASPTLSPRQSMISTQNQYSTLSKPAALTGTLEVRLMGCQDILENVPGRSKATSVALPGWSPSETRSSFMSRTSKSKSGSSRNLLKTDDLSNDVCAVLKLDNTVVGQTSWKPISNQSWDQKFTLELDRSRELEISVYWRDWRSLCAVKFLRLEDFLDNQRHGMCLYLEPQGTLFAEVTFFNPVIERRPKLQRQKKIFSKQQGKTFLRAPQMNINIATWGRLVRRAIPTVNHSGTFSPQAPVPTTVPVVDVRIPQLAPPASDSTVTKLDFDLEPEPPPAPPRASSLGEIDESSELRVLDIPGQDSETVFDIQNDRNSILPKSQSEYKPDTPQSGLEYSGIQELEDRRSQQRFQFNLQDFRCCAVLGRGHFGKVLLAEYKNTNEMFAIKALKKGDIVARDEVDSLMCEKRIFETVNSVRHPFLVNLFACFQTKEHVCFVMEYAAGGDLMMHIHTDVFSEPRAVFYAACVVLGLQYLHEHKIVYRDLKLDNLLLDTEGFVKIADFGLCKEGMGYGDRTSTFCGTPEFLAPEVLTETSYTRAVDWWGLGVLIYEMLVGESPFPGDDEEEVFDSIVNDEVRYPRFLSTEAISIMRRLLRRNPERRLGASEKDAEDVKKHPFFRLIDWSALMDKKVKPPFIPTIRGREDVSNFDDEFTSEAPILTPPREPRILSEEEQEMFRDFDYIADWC

In the case of `CCN1CCN(Cc2ccc(NC(=O)c3ccc(C)c(/C=C/c4cnc5[nH]ccc5c4OC)c3)cc2C(F)(F)F)CC1`, the inhibition in assay [1] is -8.2%. Besides, in [2], the residual activity is 8.8%.

Consider `CCN1CCN(Cc2ccc(NC(=O)c3ccc(C)c(Oc4ccnc5[nH]ccc45)c3)cc2C(F)(F)F)CC1`, for which the inhibition is 1.1% in [3], -5.6% in assay [4] and 92.7% in assay [6]. Also, the inhibition entry in assay [5] was “inactive”.

On to `CNc1cc(Oc2cc(C(=O)Nc3cc(N4CCN(C)CC4)cc(C(F)(F)F)c3)ccc2C)ncn1`, for which the inhibition in assay [7] was -1.2%; in assay [8], 30.9%; in [9], 22%; in [10], -0.3%; in assay [11] it was 1.9%; in [12], 7.5%.

(Values after ChEMBL document CHEMBL5696442, “Discovery of type II inhibitors of TGFβ-activated kinase 1 (TAK1) and mitogen-activated protein kinase kinase kinase kinase 2 (MAP4K2)” (J Med Chem, 2015).)
